This experiment has as its target T1, 5-HT1A receptor.
T1 construct: from tissue
The experiment is described as follows: In vitro binding to the 5-HT1A receptor (method of Peroutka, Brain Research 344, 167 (1985), minor modifications). Conditions: in vitro binding to 5-HT1A receptor; class symbols. On the procedure:
In vitro IC50 test values for binding to the 5-HT1A receptor were determined for representative compounds of Formula I by the method of S. J. Peroutka, Brain Research 344, 167 (1985); with only minor modifications. Test IC50 values lower than 100 nM are considered to reflect activity at the 5-HT1A receptor.

Molecules are shown by their SMILES. Counter-ions that a name gives are not always drawn.

T1 sequence (F6Q2H9 1-422): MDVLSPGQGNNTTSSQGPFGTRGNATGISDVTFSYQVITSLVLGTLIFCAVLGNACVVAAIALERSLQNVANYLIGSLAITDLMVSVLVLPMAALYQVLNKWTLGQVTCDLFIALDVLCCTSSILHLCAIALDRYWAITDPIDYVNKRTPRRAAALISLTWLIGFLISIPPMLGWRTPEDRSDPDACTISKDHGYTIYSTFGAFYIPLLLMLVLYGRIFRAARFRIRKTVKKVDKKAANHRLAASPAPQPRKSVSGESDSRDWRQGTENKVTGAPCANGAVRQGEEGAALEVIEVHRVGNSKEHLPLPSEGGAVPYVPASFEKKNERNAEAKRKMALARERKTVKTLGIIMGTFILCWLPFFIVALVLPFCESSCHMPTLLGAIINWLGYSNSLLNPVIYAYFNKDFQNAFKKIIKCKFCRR

In the case of `CCN(CC1COc2ccccc2O1)C1CCC(O)(c2ccc3c(c2)OCO3)CC1` (mixture of isomers) [Example 7, (±)-Cis-N-Ethyl-N,[4-(1,3-benzodioxol-5-yl)-4-hydroxycyclohexyl]-1,4-benzodioxane-2-methanamine fumarate], the IC50 is 5 to 25 nM.
To `COC1(c2ccc3c(c2)OCO3)CCC(N(C)CC2COc3ccccc3O2)CC1` (mixture of isomers) [Example 8, (±) -Cis-N-Methyl-N-[4-(1,3-benzodioxol-5-yl)-4-methoxycyclohexyl]-1,4,-benzodioxane-2-methanamine fumarate] belongs 5 to 25 nM.
`COC1(c2ccc3c(c2)OCCO3)CCC(NCC2COc3ccccc3O2)CC1` (racemic) [Example 4, (±)-Cis-N-[4-(1,4-benzodioxan-6-yl)-4-methoxycyclohexyl]-1,4-benzodioxane-2-methanamine hemifumarate]: the IC50 was in the range of 1 to 5 nM.
Turning to `CCOC1(c2ccc3c(c2)OCO3)CCC(NCC2COc3ccccc3O2)CC1` (racemic) [Example 5, (±)-Cis-N-[4-(1,3-benzodioxol-5-yl)-4-ethoxycyclohexyl]-1,4-benzodioxane-2-methanamine fumarate], the 50% inhibitory concentration (IC50) was 1 to 5 nM.
`COC1(c2ccc3c(c2)OCO3)CCC(NCC2COc3ccccc3O2)CC1` (racemic) [Example 6, (±)-Cis-N-[4-(1,3-Benzodioxol-5-yl)-4-methoxycyclohexyl]-1,4-benzodioxane-2-methanamine hemifumarate] displayed an IC50 of 1 to 5 nM.
The result for `COC1(c2ccc3c(c2)OCO3)CCC(NCC2COc3ccccc3O2)CC1` (racemic) [Example 10, (±)-Trans-N-[4-(1,3-benzodioxol-5-yl)-4-methoxycyclohexyl]-1,4-benzodioxane-2-methanamine hemifumarate] reads 5 to 25 nM.
The result for `OC1(c2ccc3c(c2)OCO3)CCC(NCC2CCc3ccccc3O2)CC1` (racemic) [Example 11, (±)-Cis-4-[[(3,4-dihydro-2H-1-benzopyran-2-yl)methyl]amino]-1-(1,3-benzodioxol-5-yl)cyclohexanol] reads less than 1 nM.
As to `OC1(c2ccc(F)c(F)c2)CCC(NCC2COc3ccccc3O2)CC1` (racemic) [Example 13, (±)-Cis-4-[(1,4-Benzodioxan-2-yl)methylamino]-1-(3,4-difluorophenyl)cyclohexanol], the IC50 was less than 1 nM.
`COC1(c2ccc3c(c2)OCO3)CCC(NCC2COc3ccccc3O2)CC1` (single isomer, unassigned; (-)) [Example 9] had an IC50 of less than 1 nM.
The result for `OC1(c2ccc3c(c2)OCO3)CCC(NCC2COc3ccccc3O2)CC1` (stereo not drawn) [Example 1, Cis-4-[(2S-1,4-Benzodioxan-2-yl)methylamino]-1-(1,3-benzodioxol-5-yl)cyclohexanol] reads less than 1 nM.
As for `COC1(c2ccc3c(c2)OCO3)CCC(NCC2COc3ccccc3O2)CC1` (stereo not drawn) [Example 2, Cis-N-[4-(1,3-Benzodioxol-5-yl)-4-methoxycyclohexyl]-2S-1,4-benzodioxane-2-methanamine hemifumarate], the IC50 was less than 1 nM.
The molecule `C1=C(c2ccc3c(c2)OCO3)CCC(NC[C@H]2COc3ccccc3O2)C1` (stereo partly drawn) [Example 12, N-[4-(1,3-Benzodioxol-5-yl)-3-cyclohexen-1-yl]-2S-1,4-benzodioxane-2-methanamine] came in with a 50% inhibitory concentration (IC50) of 5 to 25 nM.

Values taken from US5496847A, “Aminomethyl-benzodioxane and benzopyran serotonergic agents” (Bristol-Myers Squibb Co., priority 1995, dated 1996).
